Test results: patent publication US20080274522A1, “METHOD FOR THE PRODUCTION OF 2-BUTANONE” (priority 2007, published 2008)
Like-named read-outs stand apart in the source and are kept apart here.

Tests used:
[1] = system: E. coli strain MG1655; settings: log-phase
Method: A similar study was done with log-phase cultures of E. coli grown in a defined medium. E. coli strain MG1655 was allowed to grow overnight in MOPS 0.2% glucose medium (Teknova, Half Moon Bay, Calif.) at 42° C. or 28° C. The following day, the cultures were diluted into fresh medium and allowed to grow at the same temperature until in the log phase of growth. […] To these were added 10 μL of the log phase cultures and the tubes were immediately placed in shaking incubators at 42° C. or 28° C. or left on ice for 30 min. […] Then 5 μL of the undiluted treated cultures were spotted on LB agar plates. Subsequent 10-fold serial dilutions of 10^−3, 10^−4, 10^−5 and 10^−6 of the exposed cultures were done by serial pipetting of 20 μL, starting with the 10^−2 dilution cultures, into 180 μL of LB medium in the microplate, using a multi-channel pipette. Prior to each transfer, the cultures were mixed by pipetting up and down six times. Each dilution (5 μL) was spotted onto an LB plate using a multi-channel pipette and allowed to soak into the plate. The plates were inverted and incubated overnight at 37° C. […] Survival of 0% was recorded when no colonies in the spots of the undiluted or any of the serial dilutions were observed.

[2] = system: E. coli strain MG1655; settings: stationary phase
Method: For the stationary phase studies, E. coli strain MG1655 (ATCC # 700926) was grown overnight in LB medium (Teknova, Half Moon Bay, Calif.) with shaking at 250 rpm at 42° C., […] 28° C. […] To these were added 10 μL of the overnight cultures and the tubes were immediately placed in shaking incubators at 42° C. or 28° C. or left on ice for 30 min. […] Then, 5 μL of the undiluted treated cultures were spotted on LB agar plates. Subsequent 10-fold serial dilutions of 10^−3, 10^−4, 10^−5 and 10^−6 of the exposed cultures were done by serial pipetting of 20 μL, starting with the 10^−2 dilution cultures, into 180 μL of LB medium in the microplate, using a multi-channel pipette. Prior to each transfer, the cultures were mixed by pipetting up and down six times. Each dilution (5 μL) was spotted onto an LB plate using a multi-channel pipette and allowed to soak into the plate. The plates were inverted and incubated overnight at 37° C. […] Survival of 0% was recorded when no colonies in the spots of the undiluted or any of the serial dilutions were observed.

[3] = 1-butanol 1.0 % (w/v), grown at 28° C.
[4] = 1-butanol 1.0 % (w/v), grown at 42° C.
[5] = 1-butanol 1.5 % (w/v), grown at 28° C.
[6] = 1-butanol 1.5 % (w/v), grown at 42° C.
[7] = 1-butanol 2.0 % (w/v), grown at 28° C.
[8] = 1-butanol 2.0 % (w/v), grown at 42° C.
[9] = 1-butanol 3.0 % (w/v), grown at 28° C.
[10] = 1-butanol 3.0 % (w/v), grown at 29° C.
[11] = 1-butanol 3.0 % (w/v), grown at 42° C.
[12] = 1-butanol 4.0 % (w/v), grown at 28° C.
[13] = 1-butanol 4.0 % (w/v), grown at 29° C.
[14] = 1-butanol 4.0 % (w/v), grown at 42° C.
[15] = 1-butanol 5.0 % (w/v), grown at 29° C.
[16] = 1-butanol 5.0 % (w/v), grown at 42° C.
[17] = 1-butanol 6.0 % (w/v), grown at 29° C.
[18] = 1-butanol 6.0 % (w/v), grown at 42° C.
[19] = 1-butanol […] (w/v), grown at 29° C.
[20] = 1-butanol […] (w/v), grown at 42° C.
[21] = 1-butanol 1.0 % (w/v), grown at 29° C.
[22] = 1-butanol 1.5 % (w/v), grown at 29° C.
[23] = 1-butanol 2.0 % (w/v), grown at 29° C.

Substance: 1-butanol
- % survival after 30 min exposure at 42° C. [1, 3]: 100%
- % survival after 30 min exposure at 42° C. [1, 4]: 100%
- % survival after 30 min exposure at 28° C. [1, 5]: 100%
- % survival after 30 min exposure at 42° C. [1, 5]: 0%
- % survival after 30 min exposure at 28° C. [1, 6]: 100%
- % survival after 30 min exposure at 42° C. [1, 6]: 0%
- % survival after 30 min exposure at 28° C. [1, 7]: 100%
- % survival after 30 min exposure at 42° C. [1, 7]: 0%
- % survival after 30 min exposure at 28° C. [1, 8]: 100%
- % survival after 30 min exposure at 42° C. [1, 8]: 0%
- % survival after 30 min exposure at 28° C. [1, 9]: 0%
- % survival after 30 min exposure at 42° C. [1, 9]: 0%
- % survival after 30 min exposure at 0° C. [1, 10]: 100%
- % survival after 30 min exposure at 0° C. [1, 11]: 100%
- % survival after 30 min exposure at 28° C. [1, 11]: 0%
- % survival after 30 min exposure at 42° C. [1, 11]: 0%
- % survival after 30 min exposure at 28° C. [1, 12]: 0%
- % survival after 30 min exposure at 42° C. [1, 12]: 0%
- % survival after 30 min exposure at 0° C. [1, 13]: 100%
- % survival after 30 min exposure at 0° C. [1, 14]: 100%
- % survival after 30 min exposure at 28° C. [1, 14]: 0.001%
- % survival after 30 min exposure at 42° C. [1, 14]: 0%
- % survival after 30 min exposure at 0° C. [1, 15]: 50%
- % survival after 30 min exposure at 0° C. [1, 16]: 10%
- % survival after 30 min exposure at 0° C. [1, 17]: 1%
- % survival after 30 min exposure at 0° C. [1, 18]: 1%
- % survival after 30 min exposure at 42° C. ([1]; 1-butanol […] (w/v), grown at 28° C.): 0%
- % survival after 30 min exposure at 0° C. [1, 19]: 100%
- % survival after 30 min exposure at 0° C. [1, 20]: 100%
- % survival after 30 min exposure at 42° C. [1, 20]: 0%
- % survival after 30 min exposure at 28° C. [2, 3]: 100%
- % survival after 30 min exposure at 0° C. [2, 21]: 100%
- % survival after 30 min exposure at 42° C. [2, 21]: 100%
- % survival after 30 min exposure at 0° C. [2, 4]: 100%
- % survival after 30 min exposure at 28° C. [2, 4]: 100%
- % survival after 30 min exposure at 42° C. [2, 4]: 100%
- % survival after 30 min exposure at 28° C. [2, 5]: 100%
- % survival after 30 min exposure at 0° C. [2, 22]: 100%
- % survival after 30 min exposure at 42° C. [2, 22]: 0.1%
- % survival after 30 min exposure at 0° C. [2, 6]: 100%
- % survival after 30 min exposure at 28° C. [2, 6]: 100%
- % survival after 30 min exposure at 42° C. [2, 6]: 0.1%
- % survival after 30 min exposure at 28° C. [2, 7]: 100%
- % survival after 30 min exposure at 0° C. [2, 23]: 100%
- % survival after 30 min exposure at 42° C. [2, 23]: 0.1%
- % survival after 30 min exposure at 0° C. [2, 8]: 100%
- % survival after 30 min exposure at 28° C. [2, 8]: 100%
- % survival after 30 min exposure at 42° C. [2, 8]: 0%
- % survival after 30 min exposure at 28° C. [2, 9]: 100%
- % survival after 30 min exposure at 0° C. [2, 10]: 100%
- % survival after 30 min exposure at 42° C. [2, 10]: 0%
- % survival after 30 min exposure at 0° C. [2, 11]: 100%
- % survival after 30 min exposure at 28° C. [2, 11]: 100%
- % survival after 30 min exposure at 42° C. [2, 11]: 0%
- % survival after 30 min exposure at 28° C. [2, 12]: 0.0003%
- % survival after 30 min exposure at 0° C. [2, 13]: 100%
- % survival after 30 min exposure at 42° C. [2, 13]: 0%
- % survival after 30 min exposure at 0° C. [2, 14]: 100%
- % survival after 30 min exposure at 28° C. [2, 14]: 0.0004%
- % survival after 30 min exposure at 42° C. [2, 14]: 0%
- % survival after 30 min exposure at 0° C. [2, 15]: 1%
- % survival after 30 min exposure at 0° C. [2, 16]: 1%
- % survival after 30 min exposure at 0° C. [2, 17]: 0.001%
- % survival after 30 min exposure at 0° C. [2, 18]: 0%
- % survival after 30 min exposure at 0° C. ([2]; 1-butanol 7.0 % (w/v), grown at 29° C.): 0%
- % survival after 30 min exposure at 0° C. ([2]; 1-butanol 7.0 % (w/v), grown at 42° C.): 0%
- % survival after 30 min exposure at 0° C. [2, 19]: 100%
- % survival after 30 min exposure at 42° C. [2, 19]: 0%
- % survival after 30 min exposure at 0° C. [2, 20]: 100%
- % survival after 30 min exposure at 42° C. [2, 20]: 0%
